Counter-ions that a name gives are not always drawn.
Key:
[1] = molecular target: T1, xanthine oxidase (derived from butter milk) (Bos taurus, UniProt P80457); test: Xanthine oxidase-inhibitory activity (pterin oxidation, fluorescence); format: biochemical; conditions: pterin 5 μM, room temperature; read-out: IC50 (xanthine oxidase inhibition)
T1 construct: xanthine oxidase (derived from butter milk, manufactured by Sigma); purchased Sigma; host or cells: butter milk (natural source)
Protocol: A test compound was dissolved in DMSO (manufactured by Nakarai) so as to be a concentration of 10 mM and then used after the concentration was adjusted to an aimed one at use.
The evaluation of xanthine oxidase-inhibitory activity of the compound of the invention was carried out using a method described in a document (Free Radic. Biol. Med. 6, 607-615, 1992) with partial modification. Namely, xanthine oxidase (derived from butter milk, manufactured by Sigma) was adjusted to 0.03 units/ml using a 50 mM phosphate buffer and was added to a 96-well plate in an amount of 50 μl/well. Each test compound diluted so as to be a final concentration was added thereto in an amount of 2 μl/well, followed by treatment at room temperature for 20 minutes. Pterin (manufactured by Sigma) was added thereto so as to be a final concentration of 5 μM, followed by reaction at room temperature for 10 minutes. Measurement was performed using a microplate reader saphire (manufactured by Tecan) under conditions of excitation at 345 nm and emission at 390 nm (pterin was oxidized by xanthine oxidase into isoxanthopterin, which emitted a light under the conditions).
The concentration of the test compound at which 50% inhibition was observed (IC50 value) was calculated, the emissions of isoxanthopterin under conditions of the presence or absence of xanthine oxidase being 0% inhibition and 100% inhibition, respectively.

[2] = system: VEGF mRNA in the vitreous body; test: Diabetic retinopathy model (streptozotocin), VEGF mRNA in the vitreous body; format: in vivo, male Wistar rat; conditions: 30 mg/kg oral once a day for 7 days, STZ rats, vs control group
Protocol: The efficiency of the compound of the invention on diabetic retinopathy was tested by the method described in European Journal of Pharmacology 458 (2003) 283-289 (except that the animal used in the experiment was male Wistar rat, 10 weeks old).
Streptozotocin (STZ) was administered to the animals to be tested and increase in blood sugar level was confirmed after 24 hours. Thereafter, the animals were divided into a 0.5% methyl cellulose-administered group (control group) and 30 mg/kg test compound-administered group and oral administration was performed once a day for 7 days.

TNBS-induced enteritis = test: Trinitrobenzenesulfonic acid-induced enteritis-inhibitory action; format: in vivo, male Wistar rats; conditions: 3 mg/kg oral once a day, dissection on 21st day, Wistar rat
Protocol: The effectiveness of the compound of the invention on an enteritis model can be also evaluated by a model using trinitrobenzenesulfonic acid (TNBS) as an inducing agent instead of acetic acid (Cell. Mol. Biol, 38, 189-199, 1992). Thus, referring to the method described in the report, the enteritis-suppressing action of the compound of the invention was evaluated.
Namely, TNBS or physiological saline as a normal group was administered into the rectum of male Wistar rats of 200 to 250 g. Thereafter, a test compound or 0.5% methyl cellulose (control group) was orally administered once a day and dissection was performed on each administered group on 21st day. A part of the large intestine 2 to 7 cm from the anus side was cut out and incised. After feces were removed by means of tweezers, the part was washed and a score of morbid conditions was evaluated and tissue weight was measured. The score of morbid conditions and a tissue weight increase-suppressing ratio were calculated as in the evaluation method of the above acetic acid-induced enteritis-suppressing action.

AKR1C3 (17βHSD5) = molecular target: T2, AKR1C3 (17βHSD5) (Homo sapiens, UniProt P42330); test: AKR1C3 inhibitory action (DELFIA Testosterone Reagents); format: biochemical; conditions: read-out: IC50 (AKR1C3 inhibition)
T2 sequence (P42330 1-323): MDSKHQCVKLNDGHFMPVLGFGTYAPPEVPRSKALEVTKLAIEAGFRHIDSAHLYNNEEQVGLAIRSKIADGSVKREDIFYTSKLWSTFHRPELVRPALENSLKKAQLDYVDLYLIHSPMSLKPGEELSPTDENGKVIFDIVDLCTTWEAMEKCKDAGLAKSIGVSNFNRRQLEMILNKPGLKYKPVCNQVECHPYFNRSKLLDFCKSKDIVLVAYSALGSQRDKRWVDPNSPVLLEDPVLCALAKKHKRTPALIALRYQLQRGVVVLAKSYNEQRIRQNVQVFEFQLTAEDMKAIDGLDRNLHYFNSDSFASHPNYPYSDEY
Source text: AKR1C3 known as a molecule belonging to aldo-keto reductase is known as a multifunctional enzyme (Jikken Igaku 23, 90-97, 2005). There is expected the application of a compound inhibiting AKR1C3 to various morbid conditions including inflammatory diseases (Mol. Pharmacol 67, 60-68, 2005) (Current Pharmaceutical Design 10, 3505-3524, 2004) (J. Biol. Chem 273, 1855-1888, 1998).

[3] = system: pyrimidine synthetic pathway (BUN level); test: Pyrimidine synthetic pathway-inhibitory action (influence on BUN level); format: in vivo; conditions: oral administration of 30 mg/kg
Source text: Allopurinol which is an existing hyperuricemia therapeutic drug is known to cause renal dysfunction as an undesirable action. As mentioned previously, since allopurinol has a nucleic acid-like structure, as one cause thereof, it is presumed that it inhibits pyrimidine synthetic pathway. […] Thus, according to the method described in the document, the influence of the compounds of the invention on a BUN level was confirmed.

T1 sequence (P80457 whole entry): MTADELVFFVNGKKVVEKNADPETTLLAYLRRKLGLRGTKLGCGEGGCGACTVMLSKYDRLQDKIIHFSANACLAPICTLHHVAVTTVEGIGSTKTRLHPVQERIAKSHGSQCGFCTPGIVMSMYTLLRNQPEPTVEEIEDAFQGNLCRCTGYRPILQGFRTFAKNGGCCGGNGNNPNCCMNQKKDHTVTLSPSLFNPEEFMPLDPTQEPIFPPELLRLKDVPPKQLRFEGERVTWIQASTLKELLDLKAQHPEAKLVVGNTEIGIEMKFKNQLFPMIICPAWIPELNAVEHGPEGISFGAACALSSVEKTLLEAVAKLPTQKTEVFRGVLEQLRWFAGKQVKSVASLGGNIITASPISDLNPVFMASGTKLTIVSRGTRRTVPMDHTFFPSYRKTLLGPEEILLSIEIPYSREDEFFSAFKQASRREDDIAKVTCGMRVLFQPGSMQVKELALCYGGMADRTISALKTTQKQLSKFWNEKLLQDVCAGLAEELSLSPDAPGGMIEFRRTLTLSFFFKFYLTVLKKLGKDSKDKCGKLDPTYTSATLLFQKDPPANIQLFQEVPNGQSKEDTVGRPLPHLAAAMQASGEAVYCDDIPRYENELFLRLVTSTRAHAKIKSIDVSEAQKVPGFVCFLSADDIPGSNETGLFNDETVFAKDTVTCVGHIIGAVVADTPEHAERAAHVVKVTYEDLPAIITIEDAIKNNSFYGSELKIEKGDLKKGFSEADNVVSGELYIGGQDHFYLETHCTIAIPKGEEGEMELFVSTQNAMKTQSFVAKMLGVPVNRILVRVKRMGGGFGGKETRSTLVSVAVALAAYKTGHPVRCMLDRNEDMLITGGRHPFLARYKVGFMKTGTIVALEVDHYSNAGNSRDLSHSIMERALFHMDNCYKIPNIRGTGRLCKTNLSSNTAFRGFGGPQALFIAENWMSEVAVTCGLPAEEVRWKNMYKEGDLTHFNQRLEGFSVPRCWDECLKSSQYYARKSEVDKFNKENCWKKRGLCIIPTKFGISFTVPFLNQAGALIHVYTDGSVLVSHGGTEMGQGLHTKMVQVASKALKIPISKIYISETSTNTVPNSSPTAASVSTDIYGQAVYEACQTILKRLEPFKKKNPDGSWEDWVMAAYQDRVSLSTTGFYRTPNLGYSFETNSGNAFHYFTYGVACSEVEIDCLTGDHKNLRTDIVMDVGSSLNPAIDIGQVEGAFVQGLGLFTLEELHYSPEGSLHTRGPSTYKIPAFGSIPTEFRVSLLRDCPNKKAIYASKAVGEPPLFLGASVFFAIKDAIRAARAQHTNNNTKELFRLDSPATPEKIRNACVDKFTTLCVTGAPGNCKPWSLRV

CC(C)COc1ccc(-c2cc(C(=O)O)ccn2)cc1C#N [Example 1, 2-(3-cyano-4-isobutoxyphenyl)isonicotinic acid]
IC50 [1]: 3.6 nM

CSCCCOc1ccc(-c2cc(C(=O)O)ccn2)cc1C#N [Example 3, 2-{3-cyano-4-[3-(methylthio)propoxy]phenyl}isonicotinic acid]
IC50 [1]: 5 nM

N#Cc1cc(-c2cc(C(=O)O)ccn2)ccc1N1CCCCCC1 [Example 4, 2-(4-azepan-1-yl-3-cyanophenyl)isonicotinic acid monohydrochloride]
Suppression of increase of VEGF mRNA in the vitreous body [2]: significant suppressing action | Suppression of intestinal tissue weight increase (TNBS-induced enteritis): ≥ 70% | IC50 [1]: 1.2 nM | IC50 (AKR1C3 (17βHSD5)): ≤ 1000 nM | Pyrimidine synthetic pathway inhibitory action (BUN level) [3]: no inhibitory action

CC(C)CSc1ccc(-c2cnccc2C(=O)O)cc1C#N [Example 7, sodium 5-[3-cyano-4-(isobutylthio)phenyl]isonicotinate]
IC50 [1]: 2.5 nM

N#Cc1cc(-c2cc(C(=O)O)ccn2)ccc1OCc1ccccc1 [Example 9]
IC50 [1]: 2.6 nM

N#Cc1cc(-c2cc(C(=O)O)ccn2)ccc1OCC(F)(F)F [Example 13]
IC50 [1]: 10 nM

N#Cc1cc(-c2cc(C(=O)O)ccn2)ccc1OC1CCOCC1 [Example 14]
IC50 [1]: 4.1 nM

N#Cc1cc(-c2cc(C(=O)O)ccn2)ccc1OCc1ccccn1 [Example 21]
IC50 [1]: 10 nM

N#Cc1cc(-c2cc(C(=O)O)ccn2)ccc1OCCOc1ccccc1 [Example 30]
IC50 [1]: 4.2 nM

N#Cc1cc(-c2cc(C(=O)O)ccn2)ccc1OCCOc1cc(F)cc2c1OCCC2 [Example 33]
IC50 [1]: 7.3 nM

CC1(C)CC(Oc2ccc(-c3cc(C(=O)O)ccn3)cc2C#N)CC(C)(C)C1 [Example 44]
IC50 [1]: 4.3 nM

CC1CCN(c2ccc(-c3cc(C(=O)O)ccn3)cc2C#N)CC1 [Example 45]
IC50 [1]: 1.3 nM | Pyrimidine synthetic pathway inhibitory action (BUN level) [3]: no inhibitory action

N#Cc1cc(-c2cc(C(=O)O)ccn2)ccc1N1CC=CCC1 [Example 49]
IC50 [1]: 2.8 nM

CCCCN(C)c1ccc(-c2cc(C(=O)O)ccn2)cc1C#N [Example 57]
IC50 [1]: 3.1 nM

N#Cc1cc(-c2cc(C(=O)O)ccn2)ccc1NC1CCCCCC1 [Example 63]
IC50 [1]: 1.1 nM

COC1(C2CCCCC2)CCN(c2ccc(-c3cc(C(=O)O)ccn3)cc2C#N)CC1 [Example 67]
IC50 [1]: 2.2 nM

CC(C)=CCOc1ccc(-c2cc(C(=O)O)ccn2)cc1C#N [Example 72]
IC50 [1]: 3.1 nM

CC(C)COc1ccc(-c2nccc(C(=O)O)c2F)cc1C#N [Example 75]
IC50 [1]: 3.2 nM

CC(C)COc1ccc(-c2cc(C(=O)O)c(Cl)cn2)cc1C#N [Example 77]
IC50 [1]: 4 nM

CC(C)COc1c(Br)cc(-c2cc(C(=O)O)ccn2)cc1C#N [Example 79]
IC50 [1]: 5.8 nM

Reference: patent US7820700B2, “2-phenylpyridine derivative” (Astellas Pharma Inc., priority 2004, dated 2010)
